The results in this text go back to ChEMBL document CHEMBL1157539, “Thousands of chemical starting points for antimalarial lead identification” (Nature, 2010).

The subject of the experiment is Plasmodium falciparum. The experiment in a line: GSK_TCMDC: Inhibition of Plasmodium falciparum 3D7 in whole erythrocytes, using parasite LDH activity as an index of growth. The class given is functional, organism-based. As to conditions: Plasmodium falciparum, 3D7.
Compound `CC(=O)c1ccc(NC(=O)Nc2ccc(N(C)c3ccnc(Nc4cccc(CS(C)(=O)=O)c4)n3)cc2)cc1` yielded an XC50 of 122 nM.

Turning to `CC(C)N1CCC(N(Cc2ccc(-c3ccc(C(F)(F)F)cc3)cc2)C(=O)Cn2c(SCc3cccc(F)c3F)cc(=O)c3c2CCC3)CC1`, the XC50 worked out at 1160 nM.

The compound `Nc1nc(N)c2c3c(ccc2n1)CCC3` yielded an XC50 of 928 nM.

Compound `CCN(CC)CCNc1cc(C)nc(NC(=N)Nc2ccc(Cl)cc2)n1` came in with an XC50 of 130 nM.

In turn, `COc1ccc(C(O)CNC(C)CCc2ccc(F)cc2)cc1C(F)(F)F` (stereo unspecified) yielded an XC50 of 747 nM.

As for `COc1ccc(NC(=O)Nc2cccc(-c3ccc(-c4nc5cc(C(F)(F)F)ccc5[nH]4)cc3)c2)cc1`, the XC50 was determined as 452 nM.

`O=C(Cc1ccc(NC(=O)c2ccc(O)c(-c3ccc(Cl)c(Cl)c3)c2)cc1)NCCN1CCOCC1` came in with an XC50 of 806 nM.

`CCN1CCN(Cc2ccc3nc(-c4cc(C)n(Cc5cc(Cl)ccc5OCc5ccccc5)n4)[nH]c3c2)CC1` had an XC50 of 770 nM.

The compound `COc1ccc(-c2onc(C(F)(F)F)c2-c2ccc(Br)cc2)c(O)c1` yielded an XC50 of 237 nM.

Consider `CCOC(=O)c1nc(-c2cc(Cl)nc(Cl)c2)[nH]c1NC(=S)NCc1ccc(NS(C)(=O)=O)cc1`, for which the XC50 was found to be 892 nM.

Take `O=C(Nc1cccc(CN2CCN(Cc3ccc(O)cc3)CC2)c1)c1ccc(-c2ccccc2)cc1`: the XC50 came out at 245 nM.

In turn, `O=C(NC1CCC(N2CCC(Cc3ccc(F)cc3)CC2)CC1)c1cc2ccccc2[nH]1` (stereo unspecified) showed an XC50 of 868 nM.

Turning to `Cc1cccn2c(=O)c3cc(C(=O)NCCc4ccccc4)c(=N)n(CCCOC(C)C)c3nc12`, the XC50 was 481 nM.

The compound `COC(=O)c1ccc(C(=O)NCCCCN2CCC(c3ccc4c(c3OC)CCCC4)CC2)cc1-c1ccc(C(F)(F)F)cc1` yielded an XC50 of 1150 nM.

Regarding `CCCCCN1CCC(NS(=O)(=O)c2ccc(C(=O)Nc3cccc(C(F)(F)F)c3)cc2)C1` (stereo unspecified), the XC50 was 995 nM.

Turning to `O=C(NCCCCN1CCC(c2ccc3ccccc3c2O)CC1)c1ccc(NC(=O)c2ccc(Cl)cc2)cc1`, the XC50 was determined as 1010 nM.

As for `CN1CCC(O)(c2ccc(Br)cc2)C(C(O)c2ccc(Br)cc2)C1` (stereo unspecified), the XC50 was 731 nM.

The compound `CN(C)CCCN1CCN(C(=O)c2cc3cc(-c4ccccc4)ccc3n2S(=O)(=O)c2ccccc2)CC1` showed an XC50 of 119 nM.

The compound `C=C(NC(=O)c1cc(C)cc(C)c1)C(=O)OC` yielded an XC50 of 174 nM.

Turning to `CN(C)c1ccc(C2c3[nH]cnc3CCN2C(=O)Nc2cccc([N+](=O)[O-])c2)cc1` (stereo unspecified), the XC50 stood at 966 nM.

In turn, `CC(C)(C)c1ccc(OCCCON2C(N)=NC(N)=NC2(C)C)cc1` came in with an XC50 of 3.2 nM.

In turn, `c1cc(CN2CCN(CCN3CCOCC3)CC2)cc(-c2csc(-c3nc4ccccc4[nH]3)c2)c1` gave an XC50 of 452 nM.

In turn, `O=S(=O)(c1ccc(Oc2ccccc2)cc1)N(CCC(O)(C(F)(F)F)C(F)(F)F)Cc1cccc(O)c1` registered an XC50 of 491 nM.

`Oc1cc2ccccc2cc1CNC1CCCCC1` yielded an XC50 of 586 nM.

`COc1c(C2CCN(CCCCNC(=O)c3ccc(-c4ccc(Cl)cc4)c(OCC(N)=O)c3)CC2)ccc2c1CCCC2` showed an XC50 of 1010 nM.

The compound `Cc1nc2ccccc2c(O)c1-c1ccc(Cl)cc1` showed an XC50 of 999 nM.

As for `CCn1cnc2c(N3CCCCS3(=O)=O)cc(C(=O)N[C@@H](Cc3ccccc3)[C@H](O)CNC3CCOCC3)cc21`, the XC50 worked out at 712 nM.

Turning to `Cc1ccccc1NC(=O)C1CSCN1C(=O)OCc1ccccc1` (stereo unspecified), the XC50 was 983 nM.

As for `CN1CCN(CCCNCc2cccc(Nc3nccc(Nc4ccc(Oc5ccccc5)cc4)n3)c2)CC1`, the XC50 was 765 nM.

Turning to `c1ccc2c(Nc3ccc(Oc4ccc(Nc5c6ccccc6nc6ccccc56)cc4)cc3)c3ccccc3nc2c1`, the XC50 came out at 518 nM.

`O=C(NCCCN1CCC(N2CCCCC2)CC1)c1ccc(N2CCOc3ccccc32)s1` registered an XC50 of 732 nM.

`CCc1c(CCNCCCCCCNCCc2ccc(OC)c(OC)c2C)ccc(OC)c1OC`: the XC50 worked out at 1570 nM.

`CNCCNCc1ccc(-c2ccc(-c3nc4cc(F)ccc4[nH]3)s2)cc1`: the XC50 came out at 772 nM.

Compound `O=C(CCCCCCc1ccccc1)Nc1ccc2nc3c(c(NCc4ccccc4)c2c1)CCCC3` showed an XC50 of 358 nM.

On to `Nc1nc(N)c2c3c(cnc2n1)CCCC3`, for which the XC50 came out at 770 nM.

Take `O=C(Nc1cc(Cl)c(Cl)cc1NC(=O)c1cccc(-c2ccccc2)c1O)c1cccc(-c2ccccc2)c1O`: the XC50 amounted to 505 nM.

In turn, `CC(C)c1cc(Oc2c(I)cc(CCNC(=N)N)cc2I)ccc1O` showed an XC50 of 788 nM.

Regarding `O=C(Nc1ccc([N+](=O)[O-])cc1)Nc1cc(OCC(F)(F)F)cc(OCC(F)(F)F)c1`, the XC50 turned out to be 469 nM.

`O=C(NC1CCN(Cc2ccc3c(c2)OCCO3)CC1)c1ccc(-c2cccc(C(F)(F)F)c2)s1` displayed an XC50 of 1830 nM.

`CN=C(N)c1ccc(NC(=O)C=Cc2ccc(C(=O)Nc3ccc(C(N)=NC)cc3)cc2)cc1` yielded an XC50 of 31.4 nM.

In turn, `Cc1cc(N(C)C2CCN(C)CC2)nc(Nc2ccc(Br)cc2)n1` showed an XC50 of 480 nM.

`Cc1cccc2nc(-c3cccc(-c4ccc(CN5CCC(C(N)=O)CC5)cc4)c3)[nH]c12` returned an XC50 of 853 nM.

`CCc1c[nH]c2c(N3CCCC3=O)cc(C(=O)N[C@@H](Cc3ccccc3)[C@H](O)CNC3CCCCC3)cc12` showed an XC50 of 102 nM.

As to `Cc1cccc2nc(-c3cccc(-c4ccc(NC(=O)C(C)C(=O)NC(C)C)cc4)c3)[nH]c12` (stereo unspecified), the XC50 was found to be 1000 nM.

In turn, `FC(F)(F)c1ccc2[nH]c(-c3cccc(-c4cccc(CNCCc5ccncc5)c4)c3)nc2c1` displayed an XC50 of 141 nM.

In turn, `CCCCCCN(CCCCCC)CCCCNc1c2ccc(Cl)cc2nc2ccc(OC)cc12` showed an XC50 of 535 nM.

As to `O=C(NC(c1ccccc1)c1ccccc1)C(c1cc2ccccc2o1)N1CCN(C(c2ccccc2)c2ccccc2)CC1` (stereo unspecified), the XC50 is 679 nM.

For the compound `CCCOc1ccc(CNCCCCCCNCc2ccc(OCCC)c3ccccc23)c2ccccc12`, the XC50 amounted to 410 nM.

`COc1ccc(C2CCC(NCCCCNC(=O)c3ccc(NC(=O)c4ccc(Cl)cc4)cc3)CC2)cc1` (stereo unspecified) came in with an XC50 of 627 nM.

Regarding `CCN(CC)CCOc1c(Cl)cc(Cl)cc1CNCCCNc1cc(=O)c2ccccc2[nH]1`, the XC50 was 871 nM.

`Cc1cc(C)c(C(=O)Nc2ccc3nc(C)cc(N)c3c2)c(C)c1`: the XC50 turned out to be 1100 nM.

With `Oc1c(CN2CCCC(C(F)(F)F)C2)cc(Cl)c2ccccc12` (stereo unspecified), the XC50 came out at 1570 nM.

Turning to `CN(C)CC(=O)Nc1ccc(-c2ccc3ccnc(N)c3c2)cc1`, the XC50 was determined as 33.1 nM.

As to `COc1cc2ncnc(NCCc3ccccc3Cl)c2cc1OC`, the XC50 stood at 1120 nM.

The compound `COc1cc(OC)c2c(C)cc(NCCCn3ccnc3)nc2c1` yielded an XC50 of 804 nM.

Regarding `CCc1cn(CCCOC)c2ccc(C(=O)N[C@@H](Cc3ccccc3)[C@H](O)CNCc3cccc(C(F)(F)F)c3)cc12`, the XC50 is 186 nM.

Turning to `COc1cc(CNCCCNc2cc(=O)c3ccccc3[nH]2)c2c(c1)C(C)CN2C(=O)OC(C)(C)C` (stereo unspecified), the XC50 was determined as 734 nM.

For `Cc1nnsc1C(=O)Nc1cccc(-c2cccc(-c3nc4ccccc4[nH]3)c2)c1`, the XC50 came to 437 nM.

`CCOc1ccccc1CON1C(N)=NC(N)=NC1(C)C` had an XC50 of 3.71 nM.

The compound `Cc1ccc(NC(=O)c2ccc(CN3CCCN(CCC(C)C)CC3)cc2)cc1C` registered an XC50 of 913 nM.

Compound `CC1(C)NC(N)=NC(=N)N1OCCSCc1cc(Cl)sc1Cl` had an XC50 of 3.2 nM.

Turning to `Nc1nc(N)c2c(ccc3c2ccn3Cc2cc3c(cc2Cl)OCO3)n1`, the XC50 was determined as 3.2 nM.

In turn, `C=C[C@]1(C)C[C@@H](OC(=O)CSC2CN3CCC2C3)[C@@]2(C)C3C(=O)CC[C@@]3(CC[C@H]2C)[C@@H](C)[C@@H]1O` (stereo partly specified) gave an XC50 of 689 nM.

Regarding `C[C@H](Cc1ccc(Oc2ccc(C[C@@H](C)NC[C@H](O)c3cccc(Cl)c3)cc2)cc1)NC[C@H](O)c1cccc(Cl)c1`, the XC50 was 560 nM.

`O=C(/C=C/c1ccc(Cl)c(Cl)c1)N1CCC(CN2CCC(c3c[nH]c4ccc(O)cc34)CC2)CC1`: the XC50 was determined as 776 nM.

In turn, `Clc1cc2c(Nc3ccc(Oc4ccccc4)cc3)ccnc2cc1-c1ccc(CNCCN2CCOCC2)o1` displayed an XC50 of 707 nM.

Compound `Cc1ccc(Nc2nc(C)cc(N3CCN(c4ccccc4)CC3)n2)cc1` displayed an XC50 of 1530 nM.

On to `CC(C)C[C@H](NC(=O)c1ccc(OCCN2CCOCC2)cc1)C(=O)N[C@H](/C=N/N(C)C(=O)c1ccccc1)CCc1ccccc1`, for which the XC50 was 269 nM.

For the compound `Cc1cc(-c2ccc(CN3Cc4ccccc4C3)cc2)ccc1S(=O)(=O)NCCN1CCCC1`, the XC50 came out at 966 nM.

On to `CC(C)(CNC(=O)[C@@H]1CCCCN1)c1nc(-c2ccc(Cl)c(O)c2)c(-c2ccncc2)[nH]1`, for which the XC50 was 841 nM.

As for `CCOc1ccc2nc3cc([N+](=O)[O-])ccc3c(N)c2c1`, the XC50 was 139 nM.

The compound `CC1CN(Cc2cccc(F)c2)CCN1c1ccc(NC(=O)c2ccc(F)cc2)cc1` (stereo unspecified) returned an XC50 of 580 nM.

Compound `COc1ccccc1Oc1c(N(C)S(=O)(=O)c2ccc(C(C)C)cc2)nc(C(F)(F)F)nc1N(C)S(=O)(=O)c1ccc(C(C)C)cc1` gave an XC50 of 846 nM.

For the compound `Cc1ccc(Cc2cnc(CN3CCCCC3)c(O)c2)cc1`, the XC50 is 890 nM.

The compound `Nc1ncc(-c2ccc(F)cc2)c2ccc(-c3cccc(F)c3)cc12` showed an XC50 of 227 nM.

In the case of `C=CCc1cc(SC)ccc1Oc1ccc(N)cc1`, the XC50 turned out to be 742 nM.

Take `Cc1cc(N[C@@H](CC(C)C)C(=O)NCCOc2ccccc2)nc(NCCc2ccc(F)cc2)n1`: the XC50 came out at 1290 nM.

In the case of `CN1CCC(NCc2ccc(-c3cccc(-c4nc5ccccc5[nH]4)c3)cc2)CC1`, the XC50 came to 126 nM.

On to `O=C(Nc1ccc(C(F)(F)F)cc1)NC1CCN(c2ccnc3ccccc23)C1` (stereo unspecified), for which the XC50 stood at 87.5 nM.

`COc1ccc(F)cc1-c1csc(N(c2ccc(F)cc2)C2CCNCC2)n1` registered an XC50 of 1210 nM.

The compound `COc1cc2c(cc1S(=O)(=O)c1ccc(NC(=O)c3ccc4ccccc4c3)cc1)CCN(C)CC2` registered an XC50 of 797 nM.

The compound `CC(C)COc1ccc(Cl)cc1Cc1ccc(-c2nc3c(F)cccc3[nH]2)o1` yielded an XC50 of 806 nM.

For the compound `CCNc1cc(C(=O)N[C@@H](Cc2ccccc2)[C@H](O)CNC23CCC(CC2)C3)cc(N2CCCCS2(=O)=O)c1`, the XC50 amounted to 34.1 nM.

In turn, `Cc1ccc(-c2nc(NC(=O)Nc3ccc(C(F)(F)F)cc3)sc2C)cc1Cl` displayed an XC50 of 659 nM.

Regarding `NC(=O)c1cccc(Nc2nccc(Nc3ccc(Oc4ccc5ccccc5c4)cc3)n2)c1`, the XC50 was 810 nM.

For the compound `CCc1cccc(NC(=O)/C=C/c2ccc3c(c2)CN(C)CC3)c1`, the XC50 stood at 767 nM.
